Experimental data reported in patent US4701521A, “Method of effecting cellular uptake of molecules” (The Trustees of Boston University, priority 1979, dated 1987).
Where two headings read alike, the source gives them in different places.

What was measured:
[1] = system: BHK (DMN^ts) baby hamster kidney cell line; details: for Cellular Uptake in 60 min.: 3 μg/ml
Experimental: This experiment was done with a baby hamster kidney cell line (BHK) transformed by exposure to dimethylnitrosamine (DMN), growing with a non-malignant phenotype at 32° C. and a malignant phenotype at 38.5° C. This temperature-sensitive mutant line, called BHK (DMN^ts) was described by G. DeMayorca et al. Proc. Natl. Acad. Sci U.S.A., 70, 46-49 (1973). The cells were grown as monolayers in Dulbecco's high glucose medium. The transition from normal to transformed phenotype requires 3 to 4 population doublings or approximately 56 hours of growth at 38.5° C. The reversion to the normal, non-malignant phenotype likewise require 3 to 4 population doublings or approximately 112 hours of growth at 32° C. […] At time 0, the growth media of the confluent monolayers were replaced by serum free medium prewarmed to 37° C. and containing 3 μg/ml radioiodinated polymer. The monolayers were then incubated for 60 min. at 37° C.

[2] = system: Sarcoma S-180 monolayers; details: for Uptake, 1-min / Uptake, 60-min: 3 μg/ml ^125 I-PLL, 37° C.; for Uptake, 60-min (Corrected for Concentration of 79 nM): assuming uptake linear with concentration
From the text: Poly-L-lysines of three different average molecular weights, i.e., 38,000, 115,000 and 230,000, were radio-iodinated using the Bolton-Hunter Reagent. See Bolton, A. E. and Hunter, W. M., Biochem J., 133, pp 529-38 (1973).

[3] = system: L-929 fibroblasts; experiment: Cytocidal effects of 6-MPRP and 6-MPRP-PLL; assay type: cell-based, mouse
From the text: […] After exposure to the free or conjugated drug, the monolayers were kept growing for 2 days in standard growth medium, at which time no cytocidal effect could be detected.

[4] = system: variant of the P 1798 lymphosarcoma, steroid-resistant, presumed MTX-sensitive; experiment: Antitumor effect (tumor weight), steroid-resistant variant; assay type: in vivo, BALB/c mice; details: for Mean Tumor Weight: Mean ± SEM
From the text: The inoculation developed into a palpable tumor within 7-8 days and killed the animal on the average within 14 days. Following inoculation, mice were divided into 4 groups of 4 or 5 mice.
Treatment consisted of one daily intravenous injection for 4 consecutive days, and was begun on Day 11 and Day 12 post-inoculation in experiment number 1 and 2 respectively. All animals were sacrificed one day after the last injection.

[5] = system: L929 fibroblast cells; experiment: Cellular uptake of HRP and conjugates as cell-associated peroxidase activity; assay type: cell-based, mouse
From the text: The rate of color development measured at 460 nm (ΔA460 nm /min) was used as an indication of enzymatic activity, and the enzymatic activity measured in the cell extract was used as an expression of cellular uptake.
Following exposure to HRP, or one of its two conjugates, the monolayers of L 929 mouse fibroblasts were washed and detached and the detached cells were washed as described in Example 3. The cells were then lysed and the cell extract used for measurement of enzymatic activity of HRP as described in Example 6.

[6] = system: L929 fibroblasts; experiment: Cytochemical localization of HRP reaction product (light and electron microscopy); assay type: cell-based, mouse
[7] = Normal phenotype, PLL MW 125,000, PDL MW 130,000

poly-D-lysine [PDL]
Transformed/Normal (uptake ratio) [1]: 1
Cellular Uptake in 60 min. [1, 7]: 685 ng/mg cell protein
Cellular Uptake in 60 min. ([1]; Transformed phenotype): 680 ng/mg cell protein

poly-L-lysine [PLL (MW 115,000)]
Uptake, 1-min [2]: 112.3 ng/mg cell protein
Uptake, 60-min [2]: 513.3 ng/mg cell protein
Uptake, 60-min (Corrected for Concentration of 79 nM) [2]: 1717 ng/mg cell protein

O=P(O)(O)OC[C@H]1O[C@@H](n2cnc3c(=S)[nH]cnc32)[C@H](O)[C@@H]1O [6-MPRP, 6-mercaptopurine ribosylphosphate]
growth inhibition, drug present for the duration of the experiment ([3]; 2×10^-6 M): both compounds had inhibiting effects
cell growth after subculture and 7 additional days ([3]; 1 h exposure to combination of free 6-MPRP (1×10^-5 M) and free PLL): grew at a rate undistinguichable from that of controls

poly-L-lysine [PLL]
% of Controls (tumor weight) ([4]; Experiment No. 1): 113%
Mean Tumor Weight ([4]; Experiment No. 1, daily i.v. 4 days from Day 11): 6.05 ± 0.52 g
% of Controls (tumor weight) ([4]; Experiment No. 2): 102%
Mean Tumor Weight ([4]; Experiment No. 2, daily i.v. 4 days from Day 12): 6.13 ± 0.31 g
Transformed/Normal (uptake ratio) [1]: 1.43
Cellular Uptake in 60 min. [1, 7]: 525 ng/mg cell protein
Cellular Uptake in 60 min. ([1]; Transformed phenotype): 750 ng/mg cell protein

horseradish peroxidase [HRP]
Cell-associated peroxidase activity ([5]; Example 6, enzyme concentration in medium 150 μg/ml): 0.14 ΔA460 nm /min/mg cell protein
Cell-associated peroxidase activity ([5]; Example 6, enzyme concentration in medium 1500 μg/ml): 1.55 ΔA460 nm /min/mg cell protein
Cell-associated peroxidase activity ([5]; Example 10, 60-minute exposure, 1.5 μg/ml in medium): 0 ΔA460 nm /min/mg cell protein
Cell-associated peroxidase activity ([5]; Example 10, 60-minute exposure, 15 μg/ml in medium): 0 ΔA460 nm /min/mg cell protein
staining of HRP reaction products, light microscopy ([6]; 60' exposure, HRP 150 μg/ml, HRP-PLL 1.5, 5 and 15 μg/ml): minimal staining
HRP reaction product, electron microscopy ([6]; HRP at 100-time greater concentration than HRP-PLL): minimal amounts of stained reaction product

poly-L-lysine [PLL (MW 38,000)]
Uptake, 1-min [2]: 18.8 ng/mg cell protein
Uptake, 60-min [2]: 349.4 ng/mg cell protein
Uptake, 60-min (Corrected for Concentration of 79 nM) [2]: 349 ng/mg cell protein

poly-L-lysine [PLL (MW 250,000)]
Uptake, 1-min [2]: 153.7 ng/mg cell protein
Uptake, 60-min [2]: 695.4 ng/mg cell protein
Uptake, 60-min (Corrected for Concentration of 79 nM) [2]: 4209 ng/mg cell protein
